≈ marks a conversion by molar mass, not a printed value.
How the values were obtained:
Experiment in all cases: In vitro anti-bacterial activity (MIC90), ophthalmologic clinical bacteria isolates
Format in all cases: cell-based
Corynebacterium species = conditions: Gram-positive
From the text: As disclosed above, most of these bacteria strains are also relevant to infections of the ear and upper respiratory tract.

Propionibacterium acnes = conditions: Cutibacterium acnes, Gram-positive
Streptococcus pneumoniae = conditions: Gram-positive
Moraxella species = conditions: Gram-negative
[1] = system: Ofloxacin-resistant Staphylococcus aureus; conditions: antibiotic-resistant organisms
Pseudomonas aeruginosa = conditions: Gram-negative
Staphylococcus aureus = conditions: Gram-positive
[2] = system: Gentamycin-resistant Pseudomonas aeruginosa; conditions: antibiotic-resistant organisms
Haemophilus influenzae = conditions: Gram-negative
[3] = system: Gentamycin-resistant Staphylococcus aureus; conditions: antibiotic-resistant organisms
[4] = system: Penicillin-resistant Streptococcus pneumoniae; conditions: antibiotic-resistant organisms
[5] = system: Coagulase-negative Staphylococcus; conditions: Gram-positive

For `CCn1cc(C(=O)O)c(=O)c2cc(F)c(N3CCNCC3)cc21` [Norfloxacin], the MIC90 (Corynebacterium species) was 16 µg/mL (≈ 50.1 µM), the MIC90 (Propionibacterium acnes) was 4 µg/mL (≈ 12.5 µM) and the MIC90 (Streptococcus pneumoniae) was 8 µg/mL (≈ 25.1 µM). For the same compound, the MIC90 (Moraxella species) was 0.25 µg/mL (≈ 0.783 µM), the MIC90 [1] was > 128 µg/mL and the MIC90 (Pseudomonas aeruginosa) was 4 µg/mL (≈ 12.5 µM). For the same compound, the MIC90 (Staphylococcus aureus) was > 128 µg/mL, the MIC90 [2] was 128 µg/mL (≈ 401 µM) and the MIC90 (Haemophilus influenzae) was ≤ 0.06 µg/mL. For the same compound, the MIC90 [3] was 128 µg/mL (≈ 401 µM), the MIC90 [4] was 8 µg/mL (≈ 25.1 µM) and the MIC90 [5] was 128 µg/mL (≈ 401 µM).
